Source: ChEMBL document CHEMBL3992534, “Design, Synthesis, and Biological Evaluation of Novel, Non-Brain-Penetrant, Hybrid Cannabinoid CB1R Inverse Agonist/Inducible Nitric Oxide Synthase (iNOS) Inhibitors for the Treatment of Liver Fibrosis” (J Med Chem, 2017)
Values belong to the compound of their own block, whether it stands above or below them. Active and inactive are the calls of the source. The calls are words filed in the database; no cut-off is given here.

Key:
[1] = tested on: Mus musculus; assay: Antiobesity activity in diet-induced obesity C57Bl6/J mouse model assessed as reduction in hepatic steatosis by measuring hepatic triglyceride level administered once daily via oral gavage for 2 weeks; format: functional
[2] = tested on: Mus musculus; assay: Antiobesity activity in diet-induced obesity C57Bl6/J mouse model assessed as improvement in glucose tolerance administered once daily via oral gavage for 2 weeks measured at post last dose by ipGTT; format: functional
[3] = tested on: Liver; assay: Drug uptake in C57Bl6/J mouse liver at 10 mg/kg, po administered via gavage measured after 28 days by LC-MS/MS analysis; format: ADME, organism-based; conditions: in vivo, 672 h
[4] = Ratio of drug level in brain to plasma in C57Bl6/J mouse at 10 mg/kg, po administered via gavage measured after 28 days by LC-MS/MS analysis; format: ADME, organism-based; conditions: brain and plasma, read-out: BPR
[5] = Tmax in mouse at 10 mg/kg, po; format: ADME, organism-based; conditions: in vivo
[6] = tested on: Mus musculus; assay: In vivo antagonist activity at CB1R in C57Bl6/J mouse assessed as induction of anxiogenic behavior at 10 mg/kg administered once daily via oral gavage for 28 days by elevated plus maze test; format: functional, organism-based
[7] = Half life in mouse at 10 mg/kg, po; format: ADME, organism-based; conditions: in vivo
[8] = tested on: Mus musculus; assay: Antiobesity activity in diet-induced obesity C57Bl6/J mouse model assessed as reduction in food intake administered once daily via oral gavage for 2 weeks; format: functional
[9] = tested on: Mus musculus; assay: In vivo antagonist activity at CB1R in C57Bl6/J mouse assessed as reversal of ACEA-induced reduction in upper gastrointestinal motility administered via oral gavage administered 30 mins prior to ACEA addition; format: functional, organism-based
[10] = tested on: Mus musculus; assay: Antifibrotic activity in CCl4-induced C57Bl6/J mouse liver fibrosis model assessed as reduction in liver fibrosis at 10 mg/kg administered via oral gavage for 4 weeks by picrosirius red staining based histological analysis; format: functional, organism-based
[11] = Oral bioavailability in Sprague-Dawley rat at 10 mg/kg; format: ADME, organism-based; conditions: in vivo
[12] = Ratio of drug level in brain to plasma in C57Bl6/J mouse at 10 mg/kg, po administered via gavage measured after 1 hr by LC-MS/MS analysis; format: ADME, organism-based
[13] = tested on: Salmonella typhimurium; assay: Mutagenicity in Salmonella typhimurium TA98 up to 125 ug/ml by Ames test; format: toxicity; conditions: salmonella enterica subsp. enterica serovar typhimurium
[14] = tested on: Brain; assay: Drug level in C57Bl6/J mouse brain at 10 mg/kg, po administered via gavage measured after 28 days by LC-MS/MS analysis; format: ADME, organism-based; conditions: in vivo, 672 h
[15] = tested on: Mus musculus; assay: Antifibrotic activity in BDL-induced CB1R deficient C57Bl6/J mouse liver damage model assessed as reduction in collagen deposition in liver at 10 mg/kg administered once daily via oral gavage by picrosirius staining based histological analysis; format: functional, organism-based
[16] = tested on: Liver; assay: Drug uptake in C57Bl6/J mouse liver at 10 mg/kg, po administered via gavage measured after 1 hr by LC-MS/MS analysis; format: ADME, organism-based; conditions: in vivo
[17] = tested on: Mus musculus; assay: Antifibrotic activity in BDL-induced wild-type C57Bl6/J mouse liver damage model assessed as reduction in collagen deposition in liver at 10 mg/kg administered once daily via oral gavage by picrosirius staining based histological analysis; format: functional, organism-based
[18] = tested on: Salmonella typhimurium; assay: Mutagenicity in Salmonella typhimurium TA100 up to 125 ug/ml by Ames test; format: toxicity; conditions: salmonella enterica subsp. enterica serovar typhimurium
[19] = tested on: Mus musculus; assay: Antiobesity activity in diet-induced obesity C57Bl6/J mouse model assessed as reduction in body weight administered once daily via oral gavage for 2 weeks; format: functional
[20] = Half life in Sprague-Dawley rat at 10 mg/kg, po; format: ADME, organism-based; conditions: in vivo
[21] = tested on: Mus musculus; assay: Antifibrotic activity in BDL-induced wild-type C57Bl6/J mouse liver damage model assessed as reduction in liver fibrosis at 10 mg/kg administered once daily via oral gavage starting on day 6 post-BDL induction by picrosirius red staining based histological analysis; format: functional, organism-based
[22] = tested on: Brain; assay: Drug level in C57Bl6/J mouse brain at 10 mg/kg, po administered via gavage measured after 1 hr by LC-MS/MS analysis; format: ADME, organism-based; conditions: in vivo
[23] = Tmax in Sprague-Dawley rat at 10 mg/kg, po; format: ADME, organism-based; conditions: in vivo
[24] = tested on: Mus musculus; assay: Antifibrotic activity in CCl4-induced C57Bl6/J mouse liver fibrosis model assessed as reduction in iNOS level at 10 mg/kg administered via oral gavage for 4 weeks by immunostaining based method; format: functional, organism-based
[25] = tested on: Mus musculus; assay: Antifibrotic activity in CCl4-induced C57Bl6/J mouse liver fibrosis model assessed as reduction in liver fibrosis at 3 mg/kg administered via oral gavage for 4 weeks by picrosirius red staining based histological analysis; format: functional, organism-based
[26] = tested on: Mus musculus; assay: Antifibrotic activity in CCl4-induced C57Bl6/J mouse liver fibrosis model assessed as reduction in iNOS level at 3 mg/kg administered via oral gavage for 4 weeks by immunostaining based method; format: functional, organism-based
[27] = tested on: Mus musculus; assay: Antifibrotic activity in BDL-induced CB1R deficient C57Bl6/J mouse liver damage model assessed as reduction in collagen deposition in liver at 3 mg/kg administered once daily via oral gavage by picrosirius red staining based histological analysis; format: functional, organism-based
[28] = tested on: Mus musculus; assay: Antifibrotic activity in BDL-induced wild-type C57Bl6/J mouse liver damage model assessed as reduction in collagen deposition in liver at 30 mg/kg administered once daily via oral gavage by picrosirius staining based histological analysis; format: functional, organism-based
[29] = tested on: Mus musculus; assay: Antifibrotic activity in BDL-induced wild-type C57Bl6/J mouse liver damage model assessed as reduction in liver fibrosis at 3 mg/kg administered once daily via oral gavage starting on day 6 post-BDL induction by picrosirius red staining based histological analysis; format: functional, organism-based
[30] = biological target: T1, Nitric oxide synthase, inducible (Mus musculus) (UniProt P29477); assay: Inhibition of iNOS in mouse RAW264.7 cells assessed as LPS-induced NO production measured after 1 hr by fluorimetric assay; format: cell-based
T1 sequence (whole entry): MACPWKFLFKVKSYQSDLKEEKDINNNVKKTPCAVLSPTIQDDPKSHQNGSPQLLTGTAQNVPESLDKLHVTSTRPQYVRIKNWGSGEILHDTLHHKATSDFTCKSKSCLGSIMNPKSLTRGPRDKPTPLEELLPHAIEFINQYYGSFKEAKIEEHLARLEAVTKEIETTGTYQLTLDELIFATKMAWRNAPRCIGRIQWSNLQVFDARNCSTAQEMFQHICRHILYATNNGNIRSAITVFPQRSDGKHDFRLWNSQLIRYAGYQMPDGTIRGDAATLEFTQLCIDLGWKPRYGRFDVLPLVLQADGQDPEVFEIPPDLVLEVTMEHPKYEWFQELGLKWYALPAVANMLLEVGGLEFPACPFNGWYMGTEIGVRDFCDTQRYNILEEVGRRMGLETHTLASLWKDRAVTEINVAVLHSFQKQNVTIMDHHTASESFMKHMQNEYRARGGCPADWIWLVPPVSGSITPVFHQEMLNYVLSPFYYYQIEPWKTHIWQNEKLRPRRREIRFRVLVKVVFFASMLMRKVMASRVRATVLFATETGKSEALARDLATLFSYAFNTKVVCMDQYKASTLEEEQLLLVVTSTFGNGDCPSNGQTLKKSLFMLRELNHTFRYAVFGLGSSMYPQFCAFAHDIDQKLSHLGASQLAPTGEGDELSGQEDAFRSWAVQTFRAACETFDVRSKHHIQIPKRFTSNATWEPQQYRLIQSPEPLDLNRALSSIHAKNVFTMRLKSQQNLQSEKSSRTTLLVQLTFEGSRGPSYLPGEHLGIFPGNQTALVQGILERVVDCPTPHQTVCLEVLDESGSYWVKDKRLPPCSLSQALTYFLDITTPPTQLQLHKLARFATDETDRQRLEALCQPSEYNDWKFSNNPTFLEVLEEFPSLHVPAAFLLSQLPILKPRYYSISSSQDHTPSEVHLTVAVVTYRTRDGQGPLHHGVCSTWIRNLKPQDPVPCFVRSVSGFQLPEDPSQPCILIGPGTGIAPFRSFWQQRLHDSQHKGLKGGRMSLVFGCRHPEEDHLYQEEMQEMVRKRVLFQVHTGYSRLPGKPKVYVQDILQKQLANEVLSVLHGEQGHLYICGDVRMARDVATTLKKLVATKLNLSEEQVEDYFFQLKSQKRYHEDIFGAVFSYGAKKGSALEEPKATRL

[31] = biological target: T1, Nitric oxide synthase, inducible (Mus musculus); assay: Inhibition of iNOS in mouse RAW264.7 cells assessed as interferon gamma-induced NO production measured after 1 hr by fluorimetric assay; format: cell-based

Drug uptake [3]: Active
Kp at 672 h [4]: 0.03
Tmax [5]: 1 h
half-life [7]: 2 h
bioavailability [11]: 55%
BPR [12]: 2.7%
Drug uptake [14]: < 3%
Drug uptake [16]: Active
half-life [20]: 2 h
Drug uptake [22]: < 3%
Tmax [23]: 0.75 h
Compound: C/C(N)=N\C(=N/S(=O)(=O)c1ccc(Cl)cc1)N1C[C@H](c2ccccc2)C(c2ccc(Cl)cc2)=N1
Activity [1]: Dose-dependent effect
Activity [2]: Dose-dependent effect
Activity [6]: inactive
Activity [8]: Dose-dependent effect
Activity [9]: Dose-dependent effect
Activity [10]: Active
Activity [13]: Non-Toxic
Activity [15]: Active
Activity [17]: Active
Activity [18]: Non-Toxic
Activity [19]: Dose-dependent effect
Activity [21]: Active
Activity [24]: Active

Compound: Cc1c(C(=O)NN2CCCCC2)nn(-c2ccc(Cl)cc2Cl)c1-c1ccc(Cl)cc1
Activity [25]: Active
Activity [26]: inactive
Activity [6]: Active
Activity [27]: inactive
Activity [28]: Active
Activity [29]: inactive

inhibition [30]: Active
inhibition [31]: Active
Compound: C/C(N)=N\C(=N/S(=O)(=O)c1ccc(Cl)cc1)N1C[C@@H](c2ccccc2)C(c2ccc(Cl)cc2)=N1
Activity [10]: Active
Activity [24]: Active
